Source: ChEMBL document CHEMBL3507680, “University of Dundee, Gates Library screen for HepG2 cell viability”

Test: Human HepG2 cell viability assay in 384 well format
Assay type: toxicity, cell-based
Set-up: dose 125 nL, time 70.5 hour; cytotoxicity at 70.5 h: concentration not given beside the values
Conditions: HepG2 cells, read-out: Inhibition

Row | SMILES | cytotoxicity at 70.5 h [%]
1 | CN(CCN1CCCCCC1)c1nccc(N2CCC(O)C2)n1 (centres undefined) | -6.64
2 | COCc1noc(CN2CC(=O)N(C)c3ccccc3C2=O)n1 | 0.208
3 | Cc1ccccc1OCC1CCCN(C(=O)CNC(=O)N(C)C)C1 (centres undefined) | 16.8
4 | N#Cc1c2n(c3c(=O)[nH]cnc13)CCCCC2 | 2.85
5 | CCc1nc(N)nc(NCCC(=O)NC2CCCCC2)c1C | -3.68
6 | Cc1cc(C(=O)N2CCC3(CC2)CN(CCN(C)C)C(=O)O3)nc(C)n1 | -6.56
7 | COCc1ccc(C(=O)N2CC[C@@](O)(COC)C(C)(C)C2)o1 | -6.95
8 | CNCc1n[nH]c(=O)n1-c1cccc(Cl)c1Cl | -8.26
9 | O=c1n(CCn2cccc2)nc(C2CCNCC2)n1Cc1ccccc1 | -3.92
10 | Cc1ccccc1C(CNC(=O)CSc1nnc(N)s1)N(C)C (centres undefined) | -6.4
11 | CCC(C(=O)NC1(CN2CCOCC2)CCCC1)n1cccn1 (centres undefined) | -2.56
12 | CCc1ncc(C(=O)N(C)C2Cc3ccccc3C2)cn1 | 2.28
13 | Cc1cccc(C(C(=O)NC(C)(C)CN2CCCC2)N(C)C)c1 (centres undefined) | -8.64
14 | CC(=O)NCc1cc2n(n1)CCN(Cc1cccc(CCN)c1)C2 | -2.57
15 | O=C(NCCn1ccnc1-c1cc2n(n1)CCNC2)c1ccc(F)cc1 | 2.16
16 | O=C(Cn1nc2ccccc2n1)N1CCCn2cncc2C1 | -8.74
17 | CC1(C)CN(S(=O)(=O)N2CCCC2)CC1c1ccccc1 (centres undefined) | -6.08
18 | CCc1nc(NCCc2nc(C)c(C)s2)c2cnn(C)c2n1 | -7.53
19 | CCc1cccc(NC(=O)CCC(=O)N(C)Cc2nc(C)c[nH]2)c1 | 2.2
20 | Cn1c(CN2CCCCC2)nnc1C1CCCN(c2ccncc2F)C1 (centres undefined) | -5.33
21 | CCN1CCCC1Cn1ccc2c(OC)c(OC)ccc2c1=O (centres undefined) | -6.22
22 | O=S1(=O)C[C@@H]2[C@H](C1)N(Cc1cc(F)cc(F)c1)CCN2CCO | -1.64
23 | CCC(C)N(Cc1cccnc1)C(=O)c1ccc(NS(=O)(=O)CC)cc1 (centres undefined) | -1.92
24 | Cc1cccnc1CN(C)C(C(=O)O)c1ccc(C(C)(C)C#N)cc1 (centres undefined) | -0.799
25 | Cc1cc(NC(=O)c2ccc(CN3CC[C@H](O)C3)cc2)ccc1F | -13.5
26 | CC(C)Cc1cc(C(=O)NCC2CCN(c3ccccc3F)C2)on1 (centres undefined) | -13.6
27 | CCCC(=O)Nc1cc(C(=O)NC(C)Cc2ccncc2)ccc1C (centres undefined) | -5.95

Row | SMILES | cytotoxicity at 70.5 h [%]
28 | CC(C)CN1CC(c2nc(-c3ccsc3)c[nH]2)CC1=O (centres undefined) | -2.45
29 | Cc1ccccc1C(C(=O)N1CCN(C(=O)c2ccc[nH]2)CC1)N(C)C (centres undefined) | -15.2
30 | Cc1cc(C)n(C2CCN(c3ncnc4c3CCC4)C2)n1 (centres undefined) | 12.6
31 | CCc1nccn1CCC(=O)N1C[C@H]2CC[C@@H]1CN(C(=O)N(C)C)C2 | -3.14
32 | Cc1ccc(-c2nc(CNC(C)CCO)[nH]c2-c2ccccn2)cc1 (centres undefined) | 1.74
33 | Cn1nnnc1SCCNC(=O)C1CCN(C(=O)C2CCCC2)CC1 | -5.48
34 | O=C(Cc1c[nH]c(=O)[nH]c1=O)N1CCCCC1CCc1ccccc1 (centres undefined) | 3.58
35 | COc1ccc(F)cc1C(=O)N1C[C@H]2CC[C@@H]1CN(c1ncccn1)C2 | -9.41
36 | CCc1nc(C)c(C(=O)N(C)Cc2cnn(-c3cccc(OC)c3)c2)s1 | -3.66
37 | CNC(=O)C(C)CNC(=O)c1coc(COc2cccc(F)c2F)n1 (centres undefined) | -14.8
38 | CCCc1nc(N2CC[C@@H](c3ccc4c(c3)OCO4)[C@H](O)C2)no1 | -9.08
39 | Cc1ncoc1C(=O)N1CCOC(CCCC(C)C)C1 (centres undefined) | -8.44
40 | COC(=O)[C@H]1C[C@@H](O)CCN1S(=O)(=O)c1ccc(F)cc1F | 21.8
41 | CCC(NS(=O)(=O)c1ccc(C(=O)NC2CC2)cc1)c1ccnn1C (centres undefined) | -7.49
42 | CCc1oc(C(=O)N[C@@H]2c3ccccc3C[C@@H]2O)cc1CN1CCCC1 | -6.15
43 | c1cncc(Cc2nnc3n2CCN(CC2CCCNC2)CC3)c1 (centres undefined) | -14
44 | CCN1CCCC1CNC(=O)CCSc1ccc2c(c1)OCCO2 (centres undefined) | 2.47
45 | Cc1nc(-c2cccnc2)ncc1C(=O)N1CCCCC(N)C1 (centres undefined) | -23.9
46 | CC(C)N1CCC(CN2CCn3nc(CNC(=O)N(C)C)cc3C2)CC1 | 4.16
47 | O=C(NCCCN1CCOCC1)C1CCCN(Cc2ccco2)C1 (centres undefined) | -1.31
48 | Cc1cc(CNc2nccc(N)n2)c2[nH]c(C)c(C)c2c1 | 1.64
49 | c1cc(-c2ccn(CCN3CCCC3)n2)cc(-c2nccs2)c1 | -6.38
50 | O=C(C1CCC1)N1CCCn2nc(CNc3ncccn3)cc2C1 | 1.42
51 | Cc1nn(C)c2nc(N3CCCC3c3nccs3)sc12 (centres undefined) | -12.1
52 | CCN(CCn1cccn1)C(=O)CN1C(=O)OC[C@@H]1c1ccccc1 | -6.78
53 | O=C(NCc1cn2cccnc2n1)C1CC(=O)N(Cc2ccccn2)C1 (centres undefined) | -6.73
54 | C[C@@H]1CN(S(=O)(=O)N2CCCCCC2)C[C@@]1(O)C1CCC1 | -8.97

Row | SMILES | cytotoxicity at 70.5 h [%]
55 | Cc1ccccc1OCC1CCCN(c2cc(N)nc(N)n2)C1 (centres undefined) | -8.34
56 | CCc1c(C(=O)N2CC[C@H](N3CCOCC3)[C@H](CCCO)C2)csc1C | -20.4
57 | CCN(Cc1noc(CC(C)C)n1)Cc1cccc(F)c1O | 12.8
58 | CC(C)c1nnsc1CNC(=O)C1CCN(C(=O)C2CCCC2)CC1 | 12
59 | CCN1CC2(CCC1=O)CCN(Cc1cscn1)CC2 | -10.8
60 | CCOC(=O)N1CCN(c2nc(CCN)nc3sc(C)c(C)c23)CC1 | 1.12
61 | COc1ccc(C)cc1C(=O)N1C[C@@H](CN(C)CCO)[C@@H](CO)C1 | 0.0463
62 | NC(=O)[C@@H]1CCCN1C(=O)c1csc(-c2ccc(C(F)(F)F)cc2)n1 | 20.6
63 | CN(Cc1cc(-c2ccncc2)no1)C(=O)[C@@H]1CSCN1C | -13.1
64 | Cc1cc(N2CCN(C3CCSCC3)CC2)n2nc(C)c(C)c2n1 | -5.2
65 | CC(=O)N1CCc2c(nc(N(C)C)nc2NCCCn2ccnc2)C1 | -8.48
66 | CCc1nc(C)c(C2CC(=O)Nc3c2c(-c2cccnc2)nn3C)[nH]1 (centres undefined) | -5.87
67 | O=C(c1ccccc1)N1C[C@@H]2CC[C@H](C1)N(C(=O)CN1CCOCC1)C2 | 3.79
68 | N[C@@H]1CC[C@@H]1NC(=O)c1ccccc1OC(F)(F)C(F)F | 3.75
69 | Cc1nnc(CN2C[C@H](NC(=O)CC3CCCC3)[C@@H](C3CC3)C2)s1 | -7.74
70 | Cn1ccnc1C(=O)N1CCC(Cn2cc(-c3ccsc3)nn2)CC1 | -8.29
71 | CCCOC1CCCN(C(=O)c2ccnnc2)C1 (centres undefined) | -2.27
72 | CC(C)c1nc(CN(C)C(=O)CCNC(=O)c2ccccc2F)no1 | 19.8
73 | CC(=O)N1CCN(Cc2ccc(Cl)c(F)c2)CC(O)C1 (centres undefined) | 17.8
74 | O=S1(=O)COCCN1CCOc1ccc(F)cc1 | -5.2
75 | Cc1noc(C)c1-c1n[nH]c2c1CN(S(=O)(=O)c1cccs1)CC2 | 0.699
76 | c1ccc(CCn2cc(-c3nc(CN4CCOCC4)no3)nn2)cc1 | -6.91
77 | O=C(Cn1nc2ccccc2n1)N1CCCC(O)(CO)C1 (centres undefined) | 6.64
78 | CN(C)C(=O)c1ccc(C(C(=O)O)N(C)Cc2ccccc2Cl)cc1 (centres undefined) | -8.81
79 | Nc1cc(C(=O)NC2CCCN(CCCc3ccccc3)C2)ccn1 (centres undefined) | 12.3
